Test [1] concerns MOLM-14 F691L cells, FLT3 ITD and FLT3 F691L. The experiment in a line: Cell proliferation assay (CellTiter-Glo), MOLM-14 F691L. It counts as cell-based. Conditions: Homo sapiens, 72 h, 3d-Growth, GMean. From the text:
The FLT3 inhibitors may be assessed using the MOLM-14, Acute Myeloid Leukemia cell line that endogenously expresses FLT3 ITD or derivatives of the human FLT3 AML cell line which acquired the D835Y (activation loop) of F691L (gatekeeper) mutation after selection in escalating doses of the FLT3 Inhibitor AC220. FLT3 inhibitors may also be assessed using cells that are engineered to express mutant FLT3. For engineered cells, murine Ba/F3 cells were transfected with full-length FLT3 ITD/D835Y mutations. The parental BA/F3 cells are dependent upon Interleukin-3 (IL-3) for survival, and introduction of the FLT3 constructs rendered these cells dependent upon FLT3 kinase activity when cultured in the absences of IL-3. Engineered BA/F3 cell growth assays can be performed in either the […] of IL-3, to assess the compound inhibition of FLT3 or to detect the presence of off-target activity, respectively. Inhibitors of FLT3 kinase activity reduce or eliminate the FLT3 oncogenic signaling, resulting in reduced cell proliferation. This inhibition is measured as a function of compound concentration to asses IC50 values.
Cell lines used in proliferation assays are as follows in Table 3:
Cells were seeded at 1×10^4 cells per well of a 96 well cell culture plate in 50 μl of cell culture medium. Compounds were dissolved in DMSO, typically at a concentration of 0.5 mM and were serially diluted 1:3 for a total of eight points and added to the cells to final concentrations of […], 0.0041, 0.0014 and 0.00046 μM in 100 μl cell culture medium (final concentration 0.2% DMSO). […] The cells were incubated at 37° C., 5% CO2 for three days. CellTiter-Glo Buffer (Promega Cell Viability Assay catalog #G7573) and substrate were equilibrated to room temperature, and enzyme/substrate Recombinant Firefly Luciferase/Beetle Luciferin was reconstituted. The cell plates were equilibrated to room temperature for 30 minutes, then lysed by addition of an equivalent volume of the Celltiter-Glo Reagent. The plate was mixed for 10 minutes on a plate shaker to lyse the cells. The plates were read on a Tecan M1000 using Luminescence protocol modified to read 0.1 s per well. The luminescence reading assesses the ATP content, which correlates directly with cell number such that the reading as a function of compound concentration was used to determine the IC50 value.

In the next test the target is T1, FLT3-D835Y (Homo sapiens, UniProt P36888, D835Y).
T1 construct: purchased Invitrogen PV3967
T1 sequence (P36888 27-993 D835Y): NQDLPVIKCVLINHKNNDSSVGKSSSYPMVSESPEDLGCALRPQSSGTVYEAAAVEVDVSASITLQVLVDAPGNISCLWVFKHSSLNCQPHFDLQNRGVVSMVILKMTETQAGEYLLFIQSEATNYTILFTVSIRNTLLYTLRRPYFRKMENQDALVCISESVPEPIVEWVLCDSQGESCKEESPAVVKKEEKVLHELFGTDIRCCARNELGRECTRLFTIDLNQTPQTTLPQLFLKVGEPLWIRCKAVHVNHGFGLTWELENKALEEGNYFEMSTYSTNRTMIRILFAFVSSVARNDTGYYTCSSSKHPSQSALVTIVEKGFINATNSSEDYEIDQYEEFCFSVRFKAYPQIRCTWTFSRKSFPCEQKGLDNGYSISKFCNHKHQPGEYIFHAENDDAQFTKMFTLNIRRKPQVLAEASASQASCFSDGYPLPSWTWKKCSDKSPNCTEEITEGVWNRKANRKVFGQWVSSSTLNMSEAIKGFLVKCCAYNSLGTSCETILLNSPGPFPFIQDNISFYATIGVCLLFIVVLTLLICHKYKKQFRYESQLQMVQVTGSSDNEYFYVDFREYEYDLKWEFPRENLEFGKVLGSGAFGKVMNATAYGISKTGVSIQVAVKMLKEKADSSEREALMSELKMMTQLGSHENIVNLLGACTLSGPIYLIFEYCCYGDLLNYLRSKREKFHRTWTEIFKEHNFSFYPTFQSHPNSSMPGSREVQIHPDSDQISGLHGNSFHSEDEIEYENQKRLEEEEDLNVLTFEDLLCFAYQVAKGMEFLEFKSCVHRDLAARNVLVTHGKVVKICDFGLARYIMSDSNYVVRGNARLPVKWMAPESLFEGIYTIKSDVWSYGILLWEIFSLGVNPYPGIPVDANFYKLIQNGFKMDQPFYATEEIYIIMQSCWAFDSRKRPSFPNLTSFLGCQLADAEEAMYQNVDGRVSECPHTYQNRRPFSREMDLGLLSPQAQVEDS
Kind of test: AlphaScreen kinase assay with recombinant enzyme, FLT3-D835Y. It counts as biochemical. The note with it: 8pt, GMean. In short, it runs like this:
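Compounds in DMSO added to enzyme plus biotin-poly(Glu4-Tyr) (30 nM) in assay buffer, then ATP added. Streptavidin donor beads added (20 min, RT), then PY20 acceptor beads (60 min, RT), both at 10 μg/mL final in stop/detection buffer. IC50 conditions: 10 μM FLT3-D835Y/ITD, 100 μM c-KIT.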

The values below come from patent US9938273B2 (Plexxikon Inc., priority 2015, dated 2018).

As a reminder, the IC50 is the concentration at which inhibition is half-maximal. Consider `CN[C@@H]1CCN(C(=O)c2ccc(-c3cnc4[nH]c(-c5ccccc5)cc4c3)s2)C1` [Compound P-0106, [(3R)-3-(methylamino)pyrrolidin-1-yl]-[5-(2-phenyl-1H-pyrrolo[2,3-b]pyridin-5-yl)-2-thienyl]methanone], for which the IC50 (in test [1]; on FLT3-D835Y) was 0.0001 to 10 µM throughout. For the compound `O=S(=O)(NC1CC1)c1cccc(-c2cnc3[nH]c(-c4ccccc4)cc3c2)n1` [Compound P-0109, N-cyclopropyl-6-(2-phenyl-1H-pyrrolo[2,3-b]pyridin-5-yl)pyridine-2-sulfonamide], the IC50 (in test [1]; at FLT3-D835Y) was 0.0001 to 10 µM in each case. For `N#CC1(NC(=O)c2cccc(-c3cnc4[nH]c(-c5ccccc5)cc4c3)n2)CC1` [Compound P-0111, N-(1-cyanocyclopropyl)-6-(2-phenyl-1H-pyrrolo[2.3-b]pyridin-5-yl]pyridine-2-carboxamide], the IC50 (in test [1]; at FLT3-D835Y) was 0.0001 to 10 µM throughout. As for `O=C(c1cccc(-c2cnc3[nH]c(-c4cnn(CC(F)(F)F)c4)cc3c2)n1)N1CCC(F)(F)C1` [Compound P-0112, (3,3-difluoropyrrolidin-1-yl)-[6-[2-[1-(2,2,2-trifluoroethyl)pyrazol-4-yl]-1H-pyrrolo[2,3-b]pyridin-5-yl]-2-pyridyl]methanone], the IC50 (in test [1]; on FLT3-D835Y) was 0.0001 to 10 µM throughout. Turning to `CC(C)(C#N)CNC(=O)c1cccc(-c2cnc3[nH]c(-c4cnn(CC(F)(F)F)c4)cc3c2)n1` [Compound P-0113, N-(2-cyano-2-methyl-propyl)-6-[2-[1-(2,2,2-trifluoroethyl)pyrazol-4-yl]-1H-pyrrolo[2,3-b]pyridin-5-yl]pyridine-2-carboxamide], the IC50 (in test [1]; at FLT3-D835Y) was 0.0001 to 10 µM in each case. As to `N#CC1(NC(=O)c2cccc(-c3cnc4[nH]c(-c5ccccc5)cc4c3)n2)CCC1` [Compound P-0114, N-(1-cyanocyclobutyl)-6-(2-phenyl-1H-pyrrolo[2,3-b]pyridin-5-yl)pyridine-2-carboxamide], the IC50 (in test [1]; on FLT3-D835Y) was 0.0001 to 10 µM each time. As for `N#CC1(F)CCN(C(=O)c2cccc(-c3cnc4[nH]c(-c5ccccc5)cc4c3)n2)C1` (stereo not drawn) [Compound P-0115, 3-fluoro-1-[6-(2-phenyl-1H-pyrrolo[2,3-b]pyridin-5-yl)pyridine-2-carbonyl]pyrrolidine-3-carbonitrile], the IC50 (in test [1]; on FLT3-D835Y) was 0.0001 to 10 µM in each case. Take `CC(C)(C#N)NC(=O)c1cccc(-c2cnc3[nH]c(-c4ccccc4)cc3c2)n1` [Compound P-0118, N-(1-cyano-1-methyl-ethyl)-6-(2-phenyl-1H-pyrrolo[2,3-b]pyridin-5-yl)pyridine-2-carboxamide]: the IC50 (in test [1]; at FLT3-D835Y) was 0.0001 to 10 µM in each case. Regarding `N#C[C@@H]1CCN(C(=O)c2cccc(-c3cnc4[nH]c(-c5ccccc5)cc4c3)n2)C1` [Compound P-0122, (3R)-1-[6-(2-phenyl-1H-pyrrolo[2,3-b]pyridin-5-yl)pyridine-2-carbonyl]pyrrolidine-3-carbonitrile], the half-inhibitory concentration (IC50) (in test [1]; at FLT3-D835Y) was 0.0001 to 10 µM throughout. `CC(C)(C#N)CNC(=O)c1cccc(-c2cnc3[nH]c(C4=CCCCC4)cc3c2)n1` [Compound P-0123, N-(2-cyano-2-methyl-propyl)-6-[2-(cyclohexen-1-yl)-1H-pyrrolo[2,3-b]pyridin-5-yl]pyridine-2-carboxamide]: the concentration for half-maximal inhibition (IC50) (in test [1]; at FLT3-D835Y) was 0.0001 to 10 µM throughout.

Regarding `O=C(NC1(CO)CC1)c1cccc(-c2cnc3[nH]c(-c4ccccc4)cc3c2)n1` [Compound P-0151, N-[1-(hydroxymethyl)cyclopropyl]-6-(2-phenyl-1H-pyrrolo[2,3-b]pyridin-5-yl)pyridine-2-carboxamide], the half-maximal inhibitory concentration (IC50) on FLT3-D835Y was 0.0001 to 10 µM. With `CC(C)(C#N)CNC(=O)c1cccc(-c2cnc3[nH]c(-c4ccnc(C5CC5)c4)cc3c2)n1` [Compound P-0152, N-(2-cyano-2-methyl-propyl)-6-[2-(2-cyclopropyl-4-pyridyl)-1H-pyrrolo[2,3-b]pyridin-5-yl]pyridine-2-carboxamide], the 50% inhibitory concentration (IC50) at FLT3-D835Y fell in the range of 0.0001 to 10 µM. Take `COc1cc(-c2cc3cc(-c4cccc(C(=O)NCC(C)(C)C#N)n4)cnc3[nH]2)ccn1` [Compound P-0154, N-(2-cyano-2-methyl-propyl)-6-[2-(2-methoxy-4-pyridyl)-1H-pyrrolo[2,3-b]pyridin-5-yl]pyridine-2-carboxamide]: the IC50 on FLT3-D835Y is 0.0001 to 10 µM. The same measure, in the same setting: then `Cn1cc(-c2cc3cc(-c4cccc(C(=O)NCC(C)(C)C#N)n4)cnc3[nH]2)ccc1=O` [Compound P-0155, N-(2-cyano-2-methyl-propyl)-6-[2-(1-methyl-6-oxo-3-pyridyl)-1H-pyrrolo[2,3-b]pyridin-5-yl]pyridine-2-carboxamide], with 0.0001 to 10 µM; and `CC(C)(C#N)CNC(=O)c1cccc(-c2cnc3[nH]c(C4=CCSCC4)cc3c2)n1` [Compound P-0159, N-(2-cyano-2-methyl-propyl)-6-[2-(3,6-dihydro-2H-thiopyran-4-yl)-1H-pyrrolo[2,3-b]pyridin-5-yl]pyridine-2-carboxamide], with 0.0001 to 10 µM.

On to `Cc1cc(-c2cc3cc(-c4cccc(C(=O)NC(C)(C)C#N)n4)cnc3[nH]2)cnn1` [Compound P-0163, N-(1-cyano-1-methyl-ethyl)-6-[2-(6-methylpyridazin-4-yl)-1H-pyrrolo[2,3-b]pyridin-5-yl]pyridine-2-carboxamide], for which the half-maximal inhibitory concentration (IC50) at FLT3-D835Y lay in the range of 0.0001 to 10 µM. On to `C#Cc1cc2cc(-c3cccc(C(=O)NC(C)(C)C#N)n3)cnc2[nH]1` [Compound P-0175, N-(1-cyano-1-methyl-ethyl)-6-(2-ethynyl-1H-pyrrolo[2,3-b]pyridin-5-yl)pyridine-2-carboxamide], for which, at FLT3-D835Y, the IC50 fell in the range of 0.0001 to 10 µM. Still for that read-out and setting: then `Cn1cncc1C#Cc1cc2cc(-c3cccc(C(=O)NC(C)(C)C#N)n3)cnc2[nH]1` [Compound P-0177, N-(1-cyano-1-methyl-ethyl)-6-[2-[2-(3-methylimidazol-4-yl)ethynyl]-1H-pyrrolo[2,3-b]pyridin-5-yl]pyridine-2-carboxamide], with 0.0001 to 10 µM. On to `CC(C)(NC(=O)c1cccc(-c2cnc3[nH]c(C4=CCN(C(=O)C5CC5)C4)cc3c2)n1)C(N)=O` [Compound P-0179, N-(2-amino-1,1-dimethyl-2-oxo-ethyl)-6-[2-[1-(cyclopropanecarbonyl)-2,5-dihydropyrrol-3-yl]-1H-pyrrolo[2,3-b]pyridin-5-yl]pyridine-2-carboxamide], for which the half-maximal inhibitory concentration (IC50) at FLT3-D835Y is 0.0001 to 10 µM. Consider `CC(C)(C#N)NC(=O)c1cccc(-c2cnc3[nH]c(-c4ccc(C5CC5)cc4)cc3c2)n1` [Compound P-0189, N-(1-cyano-1-methyl-ethyl)-6-[2-(4-cyclopropylphenyl)-1H-pyrrolo[2,3-b]pyridin-5-yl]pyridine-2-carboxamide], for which, at FLT3-D835Y, the half-inhibitory concentration (IC50) fell in the range of 0.0001 to 10 µM.
